Consider eight compounds from US10829478B2, “5-[3-[piperazin-1-yl]-3-oxo-propyl]-imidazolidine-2,4-dione derivatives as ADAMTS 4 and 5 inhibitors for treating e.g. osteoarthritis” (Galapagos NV, priority 2016, dated 2020).

Assay [1] addresses T1, human MMP13 (Homo sapiens (Human), UniProt P45452). As to the kind of experiment: hMMP13 assay, Protocol 2 (390 MMP FRET Substrate I, Enzo enzyme). Particulars: Protocol 2, human MMP13 (Enzo Life Sciences), read-out: hMMP-13 potency IC50. The class given is biochemical. Here is the method:
(§1) Human MMP13 is preactivated by incubated the enzyme in the same buffer complemented with 1 mM freshly prepared p-Aminophenylmercuric acetate (AMPA) for 1 h at 37° C.

For another assay, the target named is human ADAMTS6 (Homo sapiens (Human), UniProt Q9UKP5). The assay can be described thus: hADAMTS-6 fluorescent based protease assay (520 MMP FRET substrate XII). It is filed as biochemical. Particulars: 37° C. for 2 h; read-out: hADAMTS-6 potency IC50. The essentials:
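ADAMTS6 (0.73 nM final) in 25 mM Tris pH 8.0, 0.05% CHAPS, 2.5 mM CaCl2 with compound dilution series (top 20 μM, 1/5 steps). Reaction started with 520 MMP FRET Substrate XII, incubated 2 h at 37 °C. Substrate cleavage read by fluorescence ex485/em530; IC50 determined.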

A further assay concerns the target human TACE (Homo sapiens (Human), UniProt P78536). As to the kind of experiment: biochemical.
The target of a further assay is human ADAMTS4 (Homo sapiens (Human), UniProt O75173). As to the kind of experiment: hADAMTS-4 TBIS-1 cleavage assay, Protocol 2. The class given is biochemical.
Assay [2] deals with T2, human ADAMTS-5 (Homo sapiens (Human), UniProt Q9UNA0). The assay can be described thus: hADAMTS-5 TBIS-1 cleavage assay, Protocol 3. The class given is biochemical. Particulars: 90 min at 37° C., read-out: hADAMTS-5 potency IC50.
Procedure: The reaction is initiated by adding to the assay plate TBIS-1 (10 μL, 4.5 μM, Anaspec) in the same buffer.
Finally, the fluorescence is read on the Envision (Perkin Elmer) after an incubation of 90 min at 37° C. (Excitation 485 nm, emission 530).
Another assay has as its target rnADAMTS-5 (1-564-6H) (Rattus norvegicus (Rat), UniProt Q6TY19). The assay can be described thus: Rat ADAMTS-5 TBIS-1 cleavage assay. The class given is biochemical. Particulars: 120 min at 37° C.; read-out: Rat ADAMTS-5 potency IC50.
For another assay, the target named is human MMP14 (Homo sapiens (Human), UniProt P50281). The assay can be described thus: hMMP14 assay (390 MMP FRET Substrate I). Particulars: human MMP14 (Biomol), read-out: hMMP-14 potency IC50. It is filed as biochemical.
Assay [3] addresses T2, human ADAMTS-5. As to the kind of experiment: hADAMTS-5 TBIS-1 cleavage assay, Protocol 2. The class given is biochemical. The settings on record: 45 min at 37° C., read-out: ADAMTS5 potency IC50.
The target of assay [4] is T1, human MMP13. As to the kind of experiment: hMMP13 assay, Protocol 1 (390 MMP FRET Substrate I, Chemicon enzyme). The class given is biochemical. The settings on record: Protocol 1, human MMP13 (Chemicon), read-out: hMMP-13 potency IC50. Here is the method:
as §1

The mark [5] stands for this setting: Protocol 2, 180 min at 37° C., read-out: ADAMTS4 potency IC50.

Structures are written as SMILES. Where two headings read alike, the source gives them in different places.

Sequence of human ADAMTS4 (O75173 213-837): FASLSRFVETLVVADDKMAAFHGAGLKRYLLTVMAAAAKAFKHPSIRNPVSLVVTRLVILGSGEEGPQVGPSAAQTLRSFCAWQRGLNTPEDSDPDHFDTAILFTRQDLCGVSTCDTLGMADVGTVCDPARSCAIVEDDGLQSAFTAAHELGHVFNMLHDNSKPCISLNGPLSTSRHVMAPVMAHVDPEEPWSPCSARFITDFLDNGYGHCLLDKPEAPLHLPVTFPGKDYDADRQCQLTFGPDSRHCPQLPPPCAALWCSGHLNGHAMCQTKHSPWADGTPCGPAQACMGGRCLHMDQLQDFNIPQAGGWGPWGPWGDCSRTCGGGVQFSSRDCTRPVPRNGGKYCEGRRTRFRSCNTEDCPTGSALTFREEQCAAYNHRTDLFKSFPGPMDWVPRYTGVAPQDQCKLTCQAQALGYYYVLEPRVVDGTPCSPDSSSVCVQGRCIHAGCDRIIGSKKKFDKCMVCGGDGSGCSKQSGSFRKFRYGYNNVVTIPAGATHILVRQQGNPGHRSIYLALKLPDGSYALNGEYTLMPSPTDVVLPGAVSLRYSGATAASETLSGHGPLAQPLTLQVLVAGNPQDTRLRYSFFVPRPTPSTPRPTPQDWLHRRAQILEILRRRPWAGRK
T2 sequence (Q9UNA0 262-930): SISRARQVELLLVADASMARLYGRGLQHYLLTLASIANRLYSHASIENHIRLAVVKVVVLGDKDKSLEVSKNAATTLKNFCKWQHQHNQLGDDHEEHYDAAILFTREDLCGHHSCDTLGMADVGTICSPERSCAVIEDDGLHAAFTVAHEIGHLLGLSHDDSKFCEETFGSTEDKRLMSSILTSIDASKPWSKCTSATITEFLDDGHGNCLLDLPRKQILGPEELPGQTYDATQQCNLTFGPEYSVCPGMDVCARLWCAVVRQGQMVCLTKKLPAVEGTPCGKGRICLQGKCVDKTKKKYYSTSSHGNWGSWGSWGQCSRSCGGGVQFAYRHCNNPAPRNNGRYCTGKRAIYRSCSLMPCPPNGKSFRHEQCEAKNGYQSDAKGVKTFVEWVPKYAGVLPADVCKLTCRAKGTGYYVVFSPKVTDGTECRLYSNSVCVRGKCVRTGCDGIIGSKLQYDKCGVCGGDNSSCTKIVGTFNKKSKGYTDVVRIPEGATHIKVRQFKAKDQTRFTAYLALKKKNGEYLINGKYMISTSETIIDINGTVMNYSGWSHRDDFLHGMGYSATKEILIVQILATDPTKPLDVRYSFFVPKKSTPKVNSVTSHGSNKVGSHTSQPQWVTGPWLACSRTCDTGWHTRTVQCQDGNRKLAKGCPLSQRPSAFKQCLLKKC
Sequence of rnADAMTS-5 (1-564-6H) (Q6TY19 entry or part of it): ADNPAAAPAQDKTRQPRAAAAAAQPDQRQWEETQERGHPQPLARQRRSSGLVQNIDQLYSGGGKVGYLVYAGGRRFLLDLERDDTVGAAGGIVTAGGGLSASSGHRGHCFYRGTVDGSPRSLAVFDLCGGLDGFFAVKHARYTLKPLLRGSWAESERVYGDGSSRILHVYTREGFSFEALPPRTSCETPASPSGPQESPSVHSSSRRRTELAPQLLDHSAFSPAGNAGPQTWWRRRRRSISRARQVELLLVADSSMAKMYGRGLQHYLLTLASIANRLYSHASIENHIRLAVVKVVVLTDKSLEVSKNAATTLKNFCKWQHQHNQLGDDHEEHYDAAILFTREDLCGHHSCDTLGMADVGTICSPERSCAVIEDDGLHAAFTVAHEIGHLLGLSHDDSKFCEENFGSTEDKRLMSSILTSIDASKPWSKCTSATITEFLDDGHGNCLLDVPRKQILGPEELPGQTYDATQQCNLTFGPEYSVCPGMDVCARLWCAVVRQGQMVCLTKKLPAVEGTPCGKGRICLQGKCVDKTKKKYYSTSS
Sequence of human TACE (P78536 215-671): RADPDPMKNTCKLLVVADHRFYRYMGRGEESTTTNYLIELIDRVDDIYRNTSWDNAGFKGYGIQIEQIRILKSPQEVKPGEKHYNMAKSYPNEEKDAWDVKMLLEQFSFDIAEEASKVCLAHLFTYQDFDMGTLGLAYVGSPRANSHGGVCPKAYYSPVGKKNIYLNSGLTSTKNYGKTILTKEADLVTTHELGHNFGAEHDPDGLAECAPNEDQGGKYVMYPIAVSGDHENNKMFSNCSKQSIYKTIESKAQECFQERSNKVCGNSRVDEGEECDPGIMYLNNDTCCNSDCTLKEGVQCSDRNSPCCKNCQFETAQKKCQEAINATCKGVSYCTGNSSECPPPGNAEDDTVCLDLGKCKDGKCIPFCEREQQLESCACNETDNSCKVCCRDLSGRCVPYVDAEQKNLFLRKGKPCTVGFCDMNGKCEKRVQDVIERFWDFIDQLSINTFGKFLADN
Sequence of human ADAMTS6 (Q9UKP5 other isoform, or with tags, fused parts or gaps): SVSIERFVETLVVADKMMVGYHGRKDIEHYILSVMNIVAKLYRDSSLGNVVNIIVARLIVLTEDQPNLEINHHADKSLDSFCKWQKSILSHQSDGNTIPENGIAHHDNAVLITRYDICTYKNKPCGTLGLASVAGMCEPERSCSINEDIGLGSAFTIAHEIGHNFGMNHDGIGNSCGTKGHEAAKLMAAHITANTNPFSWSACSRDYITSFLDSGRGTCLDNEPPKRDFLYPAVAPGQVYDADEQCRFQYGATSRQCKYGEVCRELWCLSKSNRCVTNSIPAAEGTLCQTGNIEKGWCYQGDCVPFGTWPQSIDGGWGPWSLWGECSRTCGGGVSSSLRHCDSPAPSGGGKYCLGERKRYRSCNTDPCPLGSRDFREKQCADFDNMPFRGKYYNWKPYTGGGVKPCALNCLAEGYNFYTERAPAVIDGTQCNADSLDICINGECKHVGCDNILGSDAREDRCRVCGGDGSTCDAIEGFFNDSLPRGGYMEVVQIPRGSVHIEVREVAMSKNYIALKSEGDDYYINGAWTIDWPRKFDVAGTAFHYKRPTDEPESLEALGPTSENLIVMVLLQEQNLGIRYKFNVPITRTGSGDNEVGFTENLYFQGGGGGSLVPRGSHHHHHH
Procedure for human MMP14: The basis for the assay is the cleavage of the substrate 390 MMP FRET Substrate I (Anaspec Cat #AS-27076) by human MMP14 (Biomol, Cat #SE-259).
The reaction is initiated by adding to the assay plate 390 MMP FRET Substrate I (10 μL, 2.5 μM) in the same buffer.
Finally, the fluorescence is read on the Envision (Perkin Elmer) after an incubation of 60 min at room temperature (Excitation 485 nm, Emission 530).
Procedure for human TACE: Finally, the fluorescence is read on the Envision (Perkin Elmer) after an incubation of 75 min at room temperature (Excitation 485 nm, Emission 530).

A word on the IC50: it is the concentration that gives 50% inhibition. Turning to `COc1cc(N2CCN(C(=O)[C@@H](C)C[C@@]3(CN4CCC(F)(F)C4)NC(=O)NC3=O)CC2)cc(F)c1F` (stereo in doubt) [Cpd 52, 5-[3-[4-(3,4-difluoro-5-methoxy-phenyl)piperazin-1-yl]-2-methyl-3-oxo-propyl]-5-[(3,3-difluoropyrrolidin-1-yl)methyl]imidazolidine-2,4-dione], the half-inhibitory concentration (IC50) on human MMP13 [1] was more than 100 nM; at human ADAMTS6, 0.001 to 25 nM; at human TACE it was more than 100 nM; on human ADAMTS4 (setting [5]), more than 100 nM; at human ADAMTS-5 [2], 50 to 100 nM; at rnADAMTS-5 (1-564-6H), 50 to 100 nM. Besides, the IC50 on human MMP14 was more than 100 nM.
In the case of `COc1ccc(N2CCN(C(=O)CCC3(C)NC(=O)NC3=O)CC2)cc1` (centres unmarked) [Cpd 5, 5-[3-[4-(4-methoxyphenyl)piperazin-1-yl]-3-oxo-propyl]-5-methyl-imidazolidine-2,4-dione], the half-inhibitory concentration (IC50) at human ADAMTS6 and at human ADAMTS-5 [3] was more than 100 nM each time.
In the case of `CCOc1cccc(N2CCN(C(=O)CCC3(C)NC(=O)NC3=O)CC2)c1` (centres unmarked) [Cpd 16, 5-[3-[4-(3-ethoxyphenyl)piperazin-1l-yl]-3-oxo-propyl]-5-methyl-imidazolidine-2,4-dione], the 50% inhibitory concentration (IC50) at human ADAMTS6 and at human ADAMTS-5 [3] was more than 100 nM throughout.
Turning to `COc1cc(N2CCN(C(=O)CCC3(C)NC(=O)NC3=O)C[C@@H]2C)cc(Cl)c1F` (some centres unmarked) [Cpd 53, 5-[3-[(3 S)-4-(3-chloro-4-fluoro-5-methoxy-phenyl)-3-methyl-piperazin-1l-yl]-3-oxo-propyl]-5-methyl-imidazolidine-2,4-dione], the 50% inhibitory concentration (IC50) on human MMP13 [1] was more than 100 nM; on human ADAMTS6, 0.001 to 25 nM; against human TACE, more than 100 nM; on human ADAMTS4 (setting [5]), more than 100 nM; on human MMP13 [4], more than 100 nM; at human ADAMTS-5 [2], 50 to 100 nM. Moreover, the half-inhibitory concentration (IC50) at rnADAMTS-5 (1-564-6H) and on human MMP14 was more than 100 nM throughout.
Regarding `COc1cc(N2CCN(C(=O)[C@@H](C)C[C@@]3(c4ccccn4)NC(=O)NC3=O)CC2)cc(F)c1F` [Cpd 54, (5 S)-5-[(2S)-3-[4-(3,4-difluoro-5-methoxy-phenyl)piperazin-1-yl]-2-methyl-3-oxo-propyl]-5-(2-pyridyl)imidazolidine-2,4-dione], the 50% inhibitory concentration (IC50) on human MMP13 [1] was more than 100 nM; at human ADAMTS6 it was 0.001 to 25 nM; on human TACE, more than 100 nM; on human ADAMTS4, 25 to 50 nM; at human ADAMTS-5 [2], 0.001 to 25 nM; at rnADAMTS-5 (1-564-6H) it was 0.001 to 25 nM. The IC50 on human MMP14 was more than 100 nM.
Consider `COc1cc(N2CCN(C(=O)[C@@H](CO)C[C@@]3(C)NC(=O)NC3=O)CC2)cc(F)c1F` [Cpd 56, (5R)-5-[(2R)-3-[4-(3,4-difluoro-5-methoxy-phenyl)piperazin-1-yl]-2-(hydroxymethyl)-3-oxo-propyl]-5-methyl-imidazolidine-2,4-dione], for which the IC50 on human MMP13 [1] was more than 100 nM; at human ADAMTS6 it was 0.001 to 25 nM; against human TACE it was more than 100 nM; at human ADAMTS4 it was 25 to 50 nM; on human ADAMTS-5 [2] it was 25 to 50 nM; at rnADAMTS-5 (1-564-6H) it was 25 to 50 nM. For the same compound, the IC50 on human MMP14 is more than 100 nM.
`COC[C@]1(C[C@H](C)C(=O)N2CCN(c3cc(F)c(F)c(OC)c3)CC2)NC(=O)NC1=O` [Cpd 59, (5 S)-5-[(2S)-3-[4-(3,4-difluoro-5-methoxy-phenyl)piperazin-1-yl]-2-methyl-3-oxo-propyl]-5-(methoxymethyl)imidazolidine-2,4-dione]: the half-maximal inhibitory concentration (IC50) at human MMP13 [1] is more than 100 nM; on human ADAMTS6 it was 0.001 to 25 nM; on human TACE, more than 100 nM; against human ADAMTS4 it was 25 to 50 nM; at human ADAMTS-5 [2], 0.001 to 25 nM; on rnADAMTS-5 (1-564-6H) it was 0.001 to 25 nM. Moreover, at human MMP14, the IC50 was more than 100 nM.
In the case of `C[C@H]1CN(C(=O)CC[C@@]2(C)NC(=O)NC2=O)CCN1c1ccc(Cl)c(OC(F)(F)F)c1` [Cpd 86, (5R)-5-[3-[(3S)-4-[4-chloro-3-(trifluoromethoxy)phenyl]-3-methyl-piperazin-1-yl]-3-oxo-propyl]-5-methyl-imidazolidine-2,4-dione], the half-maximal inhibitory concentration (IC50) is more than 100 nM on human MMP13 [1]; 0.001 to 25 nM on human ADAMTS6; more than 100 nM against human TACE; more than 100 nM at human ADAMTS4 (setting [5]); more than 100 nM on human ADAMTS-5 [2]; more than 100 nM at rnADAMTS-5 (1-564-6H). Also, at human MMP14, the 50% inhibitory concentration (IC50) is more than 100 nM.
